Test results from patent US20060165683A1, “Methods and compositions for control of bone formation via modulation of sympathetic tone” (priority 2001, published 2006).

What was measured:
[1] = tested on: murine primary osteoblasts; experiment: cAMP production in murine primary osteoblasts; assay type: cell-based, mouse; conditions: confluent cultures, 100 μM IBMX, 5 min treatment; PTH as positive control
Experimental: (§1) Primary osteoblast cultures were established as previously described (see, e.g., Ducy et al., 2000, Cell 100: 197-207) and maintained in αMEM/0.1 mg/ml ascorbic acid supplemented with 10% FBS. SaOS-2 were grown in MEM/10% FBS. For cAMP assay confluent cultures were incubated with serum free medium containing 100 μM IBMX (3-isobutyl-1-methylxanthine, Sigma) for 8 minutes before PBS, PTH(1-34) (Bachem), isoproterenol, norepinephrine, phenylephrine (Sigma) or propranolol were added for 5 min. Intracellular cAMP concentration was measured by immunoassay (R&D Systems). For gene expression analyses, primary osteoblasts were treated for 72 hours with appropriate drugs in 0.1% FBS. Hormone serum levels were quantified using immunoassays kits from Peninsula Laboratories (Insulin) or Alpco Diagnostics (leptin). Deoxypyridinoline cross-links and Creatinine were measured in morning urines using the Quidel kits. a1(I) leptin bioactivity was verified by cotransfection of 293 cells expressing ObRb with a STAT3-responsive-luc reporter construct, pSVβgal plasmid and a1(I) leptin expression vector or mock. Twenty-four hours later luciferase and β-galactosidase activities were measured. Data represents ratios of luciferase/β-galactosidase activities, and values are mean of 6 independent transfection experiments.
For a sympathetic regulation of bone formation to exist several requirements have to be fulfilled. The first one is that functional adrenergic receptors are present on osteoblasts. […] Immunohistochemical analysis of long bones from transgenic mice expressing LacZ under the control of the osteoblast-specific fragment of the a1(I) collagen promoter verified the presence of β2-adrenergic receptors on osteoblasts (FIG. 13B). No other adrenergic receptor subtype could be detected. […] Electron micrographs confirmed the presence of unmyelinated peripheral nerve axons coursing through the marrow adjacent to bone trabeculae and to osteoblasts (FIG. 13E). β-adrenergic receptors are G-coupled receptors that signal through the cAMP pathway (see, e.g., Benovic et al., 1988, Annu Rev Cell Biol 4:405-428). Thus, to assess the biologic relevance of the presence of β2-adrenergic receptors on osteoblasts, these cells were treated with isoproterenol, a β-adrenergic agonist, alone or in the presence of propranolol, a β-adrenergic receptor antagonist; with norepinephrine, the natural ligand of β-adrenergic receptors; with phenylephrine, an α-adrenergic agonist or with vehicle and measured cAMP production. As a positive control, parathyroid hormone (PTH) that binds to another G-coupled receptor present in osteoblasts was used (Gardella & Juppner, 2001, Trends Endocrinol Metab 12:210-217.). […] These effects were abolished by propranolol treatment. […]

[2] = tested on: human SaOS-2 osteoblastic cells; experiment: cAMP production in human SaOS-2 osteoblastic cells; assay type: cell-based; conditions: SaOS-2, 100 μM IBMX, 5 min treatment
Experimental: as §1
For a sympathetic regulation of bone formation to exist several requirements have to be fulfilled. The first one is that functional adrenergic receptors are present on osteoblasts. […] No other adrenergic receptor subtype could be detected. […] Thus, to assess the biologic relevance of the presence of β2-adrenergic receptors on osteoblasts, these cells were treated with isoproterenol, a β-adrenergic agonist, alone or in the presence of propranolol, a β-adrenergic receptor antagonist; with norepinephrine, the natural ligand of β-adrenergic receptors; with phenylephrine, an α-adrenergic agonist or with vehicle and measured cAMP production. […]

ovariectomized rat = conditions: cited from earlier work
bone marrow adipocytes = conditions: lumbar spine; cited from earlier work
ob/ob mice [3] = experiment: ICV infusion of MTII in ob/ob mice; assay type: in vivo, mouse; conditions: ICV 125 ng/hr, 28 days
Experimental: (§2) Wildtype (C57BL/6J) and mutant (C57BL/6J A^y/a, C57BL/6J ob/ob) mice were obtained from the Jackson laboratory and adrenal medullectomized mice from Harlan Tecklad laboratory. Dbh−/− mice were rescued as previously described (Thomas et al., 1998, Neurochem 70:2468-2476). Isoproterenol (Sigma) was injected intraperitoneally (ip) once daily for 6 weeks at 30 mg/kg (wt) or 3 mg/kg (ob/ob). Propranolol (Sigma) was added to the drinking water at a concentration of 0.5 g/l. For ICV infusion, a 28-gauge cannula (Brain infusion kit II, Alza) was implanted into the third ventricle as previously described infusing human leptin (Sigma) at 8 ng/hr or MT-II at 125 ng/hr (Phoenix Pharmaceuticals) for 28 days (see, e.g., Ducy et al., 2000, Cell 100: 197-207). The cannula was connected to an osmotic pump (Alza) placed in the dorsal subcutaneous space of the animal. For parabiosis longitudinal incisions were made in the skin and in the peritoneal cavity along one side on each mouse. Edges of the incisions were connected by suture to induce coelioanastomosis. Cross-circulation was quantified by injecting 1 ml/kg 0.25% Evans blue into the tail vein of one mouse of the parabiosed pair. After 30 min. blood was collected from both mice by retroorbital bleeding and the blood exchange rate was calculated according to standard techniques (see, e.g., Harris & Martin, 1984, Am J Physiol 247:R380-386). […]

ob/ob mice [4] = experiment: 17 β-estradiol or testosterone treatment of hypogonadic ob/ob mice; assay type: in vivo, mouse
Description: Nevertheless, to address this point more thoroughly the hypogonadism of the ob/ob mice was exploited. Hypogonadism normally leads to an increase in osteoclasts number and in bone resorptive activity. […] On the other hand, if the osteoclasts of the ob/ob mice were not functioning properly, correcting their hypogonadism should not affect the severity of their high bone mass phenotype. To determine which of these two possibilities was correct, 17 β-estradiol or placebo pellets (Innovative Research of America) were implanted subcutaneously in 2-month-old female ob/ob mice to maintain a serum concentration of 250 pg/mL. These animals were analyzed after a 3-month treatment period.
Finally, the function of the osteoclasts of ob/ob and db/db mice was studied in vitro in an assay using hematopoietic progenitor cells from wild type, ob/ob, or db/db mice and growth factors known to induce the differentiation of these cells into functional osteoclasts. Mouse osteoclasts were generated in vitro according to protocols previously reported (Simonet et al., 1997, Cell 89, 309-319; Quinn et al., 1998, Endocrinology 139, 4424-4427). […] Medium was changed every other day. After 6 days of culture, cells were fixed in 3.7% formalin. Osteoclasts formed on plastic plates were stained for tartrate resistant acid phosphatase. Cells on dentin chips were removed by treatment with sodium hypochloride solution. Dentin chips were then stained with toluidine blue to visualize resorption pits.

wild-type (wt) mice = experiment: 17 β-estradiol treatment of wild-type mice; assay type: in vivo, mouse
C57BL/6J mice = experiment: GTG lesioning of the hypothalamus in wt mice; assay type: in vivo, mouse
Experimental: Wildtype (C57BL/6J) and mutant (C57BL/6J A^y/a, C57BL/6J ob/ob) mice were obtained from the Jackson laboratory and adrenal medullectomized mice from Harlan Tecklad laboratory. Dbh−/− mice were rescued as previously described (Thomas et al., 1998, Neurochem 70:2468-2476). Isoproterenol (Sigma) was injected intraperitoneally (ip) once daily for 6 weeks at 30 mg/kg (wt) or 3 mg/kg (ob/ob). Propranolol (Sigma) was added to the drinking water at a concentration of 0.5 g/l. For ICV infusion, a 28-gauge cannula (Brain infusion kit II, Alza) was implanted into the third ventricle as previously described infusing human leptin (Sigma) at 8 ng/hr or MT-II at 125 ng/hr (Phoenix Pharmaceuticals) for 28 days (see, e.g., Ducy et al., 2000, Cell 100: 197-207). The cannula was connected to an osmotic pump (Alza) placed in the dorsal subcutaneous space of the animal. For parabiosis longitudinal incisions were made in the skin and in the peritoneal cavity along one side on each mouse. Edges of the incisions were connected by suture to induce coelioanastomosis. Cross-circulation was quantified by injecting 1 ml/kg 0.25% Evans blue into the tail vein of one mouse of the parabiosed pair. After 30 min. blood was collected from both mice by retroorbital bleeding and the blood exchange rate was calculated according to standard techniques (see, e.g., Harris & Martin, 1984, Am J Physiol 247:R380-386). […] Two weeks after parabiosis a pump delivering leptin ICV in one animal of each pair was implanted. For GTG lesioning, 4-week-old C57BL/6J mice were given a single ip injection of either PBS or GTG (0.5 mg/g). For MSG lesioning, 2 day-old C57BL/6J pups were injected daily subcutaneously with either PBS or MSG (2 mg/g) for 10 days.
Next, 4-week-old wt mice were treated with gold thioglucose (GTG), a compound that destroys neurons of the VMH and of the more dorso-lateral part of the ARC although it affects other neurons (see, e.g., Debons et al., 1962, Am J Physiol 4:743-750). […] As with ob/ob mice, this HBM was due to an increase in bone formation defined by an increase in the bone formation rate (FIG. 9E). […] These findings established that neurons sensitive to GTG are involved in the control of bone mass.

C57BL/6J pups = experiment: MSG lesioning of the hypothalamus in mice; assay type: in vivo, mouse
Experimental: as §2

[5] = tested on: primary osteoblasts isolated from wild-type mice; experiment: Leptin signaling in primary osteoblast cultures (Stat3 phosphorylation, immediate early genes, matrix synthesis and mineralization); assay type: cell-based, mouse
Experimental: Expression of leptin in osteoblasts was studied in subconfluent primary osteoblast cultures from wild-type mice which were maintained for 4 days in 10% FBS mineralization medium and then subsequently switched to 0.5% for 2 days and replaced daily. Medium was replaced 2 hours before a 20 min treatment with 80 ng/mL leptin (Sigma) or 40 ng/mL Oncostatin M (R&D Diagnostics) or vehicle. RNA extractions were performed using Triazol (Gibco). Northern blots were performed with 15 μg of total RNA according to methods well known in the art.
To determine whether or not leptin could transduce its signal in osteoblasts, serum-starved primary osteoblasts isolated from wild-type mice were treated with leptin. Primary osteoblast cultures from calvaria of newborn wild-type or db/db mice were established as previously described (Ducy et al., 1999, Genes Dev 13, 1025-1036) and maintained in mineralization medium (αMEMI 0.1 mg/mL ascorbic acid; 5 mM […]) supplemented with 10% […]. Cultures of mutant cells were maintained in this medium for 15 days before analysis. Cultures derived from wild-type mice were maintained for 10 days in this medium then the percentage of serum was reduced to 0.5% and the medium supplemented with 1.2 μg/mL leptin (Sigma) or vehicle for 5 days.
The phosphorylation of Stat3, a downstream effector of leptin signaling in its target cells (Tartaglia et al., 1995, Cell 83, 1263-1271; Baumann et al., 1996, Proc Natl Acad Sci USA 93, 8374-8378; Ghilardi et al., 1996, Proc Natl Acad Sci USA 93, 6231-6235; Vaisse et al., 1996, Nat Genet 14, 95-97), was monitored, in addition to the expression of two immediate early genes whose transcription is increased following leptin treatment of target cells (Elmquist et al., 1997, Endocrinology 138, 839-842). As a positive control oncostatin-M that induces Stat3 phosphorylation and activates the expression of the same two immediate early genes in osteoblasts (Levy et al., 1996, Endocrinology 137, 1159-1165) was utilized. Western blot analysis was performed to determine Stat3 phosphorylation as follows. Cells were lysed, protein extracts were separated on a 7.5% SDS-PAGE and blotted on nitrocellulose (Biorad) for immunoblotting assay by methods well known in the art. Analysis of Stat3 phosphorylation was performed using the PhosphoPlus Stat3 (Tyr7O5) Antibody kit (New England Biolabs) according to the manufacturer's instructions.
Finally, the effect of a long-term leptin treatment of primary osteoblast cultures from wild-type mice on extracellular matrix synthesis and bone matrix mineralization was determined. The presence of a collagen-rich extracellular matrix and of mineralization nodules was assessed by whole-mount staining of the cultures by the van Gieson and von Kossa reagent, respectively. No difference was observed when assessing collagen synthesis or mineralization nodule formation between control and leptin-treated cultures (FIG. 5E).

[6] = estradiol-treated ob/ob mice, end of treatment period
[7] = female ob/ob mice, 3-month treatment

In the case of `NC[C@H](O)c1ccc(O)c(O)c1` [norepinephrine], the cAMP production [1] is reported as “increased” and the cAMP production [2] is reported as “induced”.

For `CC(C)(C)NCC(O)c1ccc(O)c(CO)c1` (stereo not drawn) [salbutamol], the effects in bone (ovariectomized rat) is given as “Anabolic effects”.

For `COC(=O)COc1ccc(CC(C)NCC(O)c2cccc(Cl)c2)cc1` (stereo not drawn) [BRL 35135], the “sizes of bone marrow adipocytes” value (bone marrow adipocytes) is listed as “reduce”.

In the case of MTII, the body weight (ob/ob mice [3]) is reported as “significantly decreased” and the bone mass (ob/ob mice [3]) is reported as “did not affect”.

With `C[C@]12CC[C@@H]3c4ccc(O)cc4CC[C@H]3[C@@H]1CC[C@@H]2O` [17 β-estradiol] the “hypogonadism, as judged by the aspect of uteri and levels of estradiol in blood” value (ob/ob mice [4]; 2-month-old female ob/ob mice, subcutaneous pellets, serum 250 pg/mL, 3-month treatment) was “corrected their hypogonadism”, the “increase in bone volume compared to estradiol-treated wild-type mice” value (ob/ob mice [4]; [6]) was 50% and the “increase in bone volume compared to untreated wild-type mice” value (ob/ob mice [4]; [6]) was 3 fold. The “high bone mass phenotype compared to placebo treated ob/ob mice” value (ob/ob mice [4]; [7]) was “further increase”, the osteoclast number (ob/ob mice [4]; [7]) was “normalization” and the “bone trabeculae (histological analysis of vertebrae)” value (wild-type (wt) mice) was “significant increase”.

With `CNC[C@H](O)c1cccc(O)c1` [phenylephrine] the cAMP production [1] was “not”.

In the case of `OC[C@@H](O)[C@@H](O)[C@H](O)[C@@H](O)C=S.[Au]` [GTG, gold thioglucose], the “VMH neurons expressing SF1 (immunohistochemistry)” value (C57BL/6J mice; 4-week-old wt mice, single ip injection 0.5 mg/g) is reported as “marked perturbation”, the bone formation rate (C57BL/6J mice; 12 week-old GTG-treated mice) is reported as “increase” and the “bone mass (bone histologic analysis)” value (C57BL/6J mice; 12 week-old GTG-treated mice) is reported as “HBM whose severity was nearly identical to that of ob/ob mice”. For the same molecule, the “urinary elimination of deoxypyridinoline (dpd) and osteoclast numbers” value (C57BL/6J mice; GTG-treated mice) was “normal”.

In the case of `N[C@@H](CCC(=O)O)C(=O)[O-].[Na+]` [MSG, monosodium glutamate], the “ARC structures (neurons synthesizing NPY)” value (C57BL/6J pups; newborn pups, 2 mg/g subcutaneously daily for 10 days) is reported as “markedly affected” and the “bone mass (bone volume, histology)” value (C57BL/6J pups; twelve week-old MSG-treated mice) is reported as “normal”.

B1: Oncostatin-M: positive control that induces Stat3 phosphorylation in osteoblasts (protein, UniProt P13725 26-221, looked up)
Oncostatin-M: AAIGSCSKEYRVLLGQLQKQTDLMQDTSRLLDPYIRIQGLDVPKLREHCRERPGAFPSEETLRGLGRRGFLQTLNATLGCVLHRLADLEQRLPKAQDLERSGLNIEDLEKLQMARPNILGLRNNIYCMAQLLDNSDTAEPTKAGRGASQPPTPTPASDAFQRKLEGCRFLHGYHRFMHSVGRVFSKWGESPNRSRR
With B1 the “expression of Tis11 and c-fos (Northern analysis)” value ([5]; primary osteoblasts, 20 min treatment) was “quickly and transiently activated” and the “Stat3 phosphorylation (Western blot)” value ([5]; serum-starved primary osteoblasts, 20 min, leptin 80 ng/mL, Oncostatin M 40 ng/mL) was “did induce”.
